Data published in US7491819B1 (priority 2004, dated 2009).

What follows are compounds tested against T1, HIV-integrase (Human immunodeficiency virus type 1 group M subtype B, UniProt P12497) (assay: HIV-Integrase Inhibition Activity (SPA bead strand-transfer assay)). Conditions: Table 1; read-out: Activity (HIV-integrase inhibition, IC50 class).
T1 construct: Recombinant integrase (0.26 ng) was incubated with the beads
Type: biochemical
How it was run: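 Biotin-labelled substrate DNA (5 pmole) bound to streptavidin SPA beads, preloaded with recombinant integrase (0.26 ng) for 90 min at 37° C, then washed. Inhibitors and 0.1 fmol P33-labelled target DNA added; reaction stopped with 10 mM EDTA. Integration read as scintillation CPM.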
Work on `Cc1noc(C)c1-c1ccccc1CNC(=O)c1nc2n(c(=O)c1O)CCOC2(C)C` [Example 180, Pyrimido[2,1-c][1,4]oxazine-2-carboxamide, N-[[2-(3,5-dimethyl-4-isoxazolyl)phenyl]methyl]-4,6,7,9-tetrahydro-3-hydroxy-9,9-dimethyl-4-oxo-] yielded an IC50 of 2 to 100 nM.
`COCc1ccc(-c2ccccc2CNC(=O)c2nc3n(c(=O)c2O)CCOC3(C)C)cc1` [Example 181, Pyrimido[2,1-c][1,4]oxazine-2-carboxamide, 4,6,7,9-tetrahydro-3-hydroxy-N-[[4′-(methoxymethyl)[1,1′-biphenyl]-2-yl]methyl]-9,9-dimethyl-4-oxo-] showed an IC50 of 2 to 100 nM.
`CC1(C)OCCn2c1nc(C(=O)NCc1ccccc1-c1ccc3c(c1)OCO3)c(O)c2=O` [Example 187, Pyrimido[2,1-c][1,4]oxazine-2-carboxamide, N-[[2-(1,3-benzodioxol-5-yl)phenyl]methyl]-4,6,7,9-tetrahydro-3-hydroxy-9,9-dimethyl-4-oxo-] showed an IC50 of 2 to 100 nM.
`CC1(C)OCCn2c1nc(C(=O)NCc1ccccc1-c1ccc(F)c(F)c1)c(O)c2=O` [Example 188, Pyrimido[2,1-c][1,4]oxazine-2-carboxamide, N-[(3′,4′-difluoro[1,1′-biphenyl]-2-yl)methyl]-4,6,7,9-tetrahydro-3-hydroxy-9,9-dimethyl-4-oxo-] gave an IC50 of 2 to 100 nM.
Compound `CC1(C)OCCn2c1nc(C(=O)NCc1ccccc1-c1ccc(CC#N)cc1)c(O)c2=O` [Example 189, Pyrimido[2,1-c][1,4]oxazine-2-carboxamide, N-[[4′-(cyanomethyl)[1,1′-biphenyl]-2-yl]methyl]-4,6,7,9-tetrahydro-3-hydroxy-9,9-dimethyl-4-oxo-] has an IC50 of 2 to 100 nM.
`CC1(C)OCCn2c1nc(C(=O)NCc1ccccc1-c1ccncc1)c(O)c2=O` [Example 190, Pyrimido[2,1-c][1,4]oxazine-2-carboxamide, 4,6,7,9-tetrahydro-3-hydroxy-9,9-dimethyl-4-oxo-N-[[2-(4-pyridinyl)phenyl]methyl]-] was tested, and the IC50 was 2 to 100 nM.
In the case of `Cc1ccncc1-c1ccccc1CNC(=O)c1nc2n(c(=O)c1O)CCOC2(C)C` [Example 191, Pyrimido[2,1-c][1,4]oxazine-2-carboxamide, 4,6,7,9-tetrahydro-3-hydroxy-9,9-dimethyl-N-[[2-(4-methyl-3-pyridinyl)phenyl]methyl]-4-oxo-], the IC50 is reported as 2 to 100 nM.
Compound `Cc1cc(-c2ccccc2CNC(=O)c2nc3n(c(=O)c2O)CCOC3(C)C)cnc1F` [Example 192, Pyrimido[2,1-c][1,4]oxazine-2-carboxamide, N-[[2-(6-fluoro-5-methyl-3-pyridinyl)phenyl]methyl]-4,6,7,9-tetrahydro-3-hydroxy-9,9-dimethyl-4-oxo-] has an IC50 of 2 to 100 nM.
`COc1ncc(-c2ccccc2CNC(=O)c2nc3n(c(=O)c2O)CCOC3(C)C)cc1Cl` [Example 193, Pyrimido[2,1-c][1,4]oxazine-2-carboxamide, N-[[2-(5-chloro-6-methoxy-3-pyridinyl)phenyl]methyl]-4,6,7,9-tetrahydro-3-hydroxy-9,9-dimethyl-4-oxo-] was tested, and the IC50 was 2 to 100 nM.
`CC1(C)OCCn2c1nc(C(=O)NCc1ccccc1-c1cnc3ccccc3c1)c(O)c2=O` [Example 194, Pyrimido[2,1-c][1,4]oxazine-2-carboxamide, 4,6,7,9-tetrahydro-3-hydroxy-9,9-dimethyl-4-oxo-N-[[2-(3-quinolinyl)phenyl]methyl]-] gave an IC50 of 2 to 100 nM.
`CN(C)CCNC(=O)c1cccc(-c2ccccc2CNC(=O)c2nc3n(c(=O)c2O)CCOC3(C)C)c1` [Example 195, Pyrimido[2,1-c][1,4]oxazine-2-carboxamide, N-[[3′-[[[2-(dimethylamino)ethyl]amino]carbonyl][1,1′-bzphenyl]-2-yl]methyl]-4,6,7,9-tetrahydro-3-hydroxy-9,9-dimethyl-4-oxo-] was tested, and the IC50 was 2 to 100 nM.
Work on `CN1CCN(C(=O)c2ccc(-c3ccccc3CNC(=O)c3nc4n(c(=O)c3O)CCOC4(C)C)cc2)CC1` [Example 196, Pyrimido[2,1-c][1,4]oxazine-2-carboxamide, 4,6,7,9-tetrahydro-3-hydroxy-9,9-dimethyl-N-[[4′-[(4-methyl-1-piperazinyl)carbonyl][1,1′-biphenyl]-2-yl]methyl]-4-oxo-] yielded an IC50 of 2 to 100 nM.
For `CC1(C)OCCn2c1nc(C(=O)NCc1ccccc1-c1cccc3ncccc13)c(O)c2=O` [Example 197, Pyrimido[2,1-c][1,4]oxazine-2-carboxamide, 4,6,7,9-tetrahydro-3-hydroxy-9,9-dimethyl-4-oxo-N-[[2-(5-quinolinyl)phenyl]methyl]-], the IC50 was 2 to 100 nM.
`CC1(C)OCCn2c1nc(C(=O)NCc1ccccc1-c1ccoc1)c(O)c2=O` [Example 198, Pyrimido[2,1-c][1,4]oxazine-2-carboxamide, N-[[2-(3-furanyl)phenyl]methyl]-4,6,7,9-tetrahydro-3-hydroxy-9,9-dimethyl-4-oxo-] showed an IC50 of 2 to 100 nM.
`CCOc1ccc(-c2ccccc2CNC(=O)c2nc3n(c(=O)c2O)CCOC3(C)C)cn1` [Example 199, Pyrimido[2,1-c][1,4]oxazine-2-carboxamide, N-[[2-(6-ethoxy-3-pyridinyl)phenyl]methyl]-4,6,7,9-tetrahydro-3-hydroxy-9,9-dimethyl-4-oxo-] showed an IC50 of 2 to 100 nM.
With `CC1(C)OCCn2c1nc(C(=O)NCc1ccccc1C1=CCCC1)c(O)c2=O` [Example 200, Pyrimido[2,1-c][1,4]oxazine-2-carboxamide, N-[[2-(1-cyclopenten-1-yl)phenyl]methyl]-4,6,7,9-tetrahydro-3-hydroxy-9,9-dimethyl-4-oxo-] the IC50 was 2 to 100 nM.
For `CC1(C)OCCn2c1nc(C(=O)NCc1cc(Br)c(F)cc1Br)c(O)c2=O` [Example 201, Pyrimido[2,1-c][1,4]oxazine-2-carboxamide, N-[(4-fluoro-2,5-dibromophenyl)methyl]-4,6,7,9-tetrahydro-3-hydroxy-9,9-dimethyl-4-oxo], the IC50 was 2 to 100 nM.
`CC1(C)OCCCn2c1nc(C(=O)NCc1ccc(F)cc1S(C)(=O)=O)c(O)c2=O` [Example 202, 6H-Pyrimido[2,1-c][1,4]oxazepine-2-carboxamide, N-[[4-fluoro-2-(methylsulfonyl)phenyl]methyl]-4,7,8,10-tetrahydro-3-hydroxy-10,10-dimethyl-4-oxo-] was tested, and the IC50 was 2 to 100 nM.
`CCC1(CC)OCCn2c1nc(C(=O)NCc1ccc(F)cc1S(C)(=O)=O)c(O)c2=O` [Example 203, Pyrimido[2,1-c][1,4]oxazine-2-carboxamide, 9,9-diethyl-N-[[4-fluoro-2-(methylsulfonyl)phenyl]methyl]-4,6,7,9-tetrahydro-3-hydroxy-4-oxo-] was tested, and the IC50 was 2 to 100 nM.
Work on `CN(C)S(=O)(=O)c1cc(F)ccc1CNC(=O)c1nc2n(c(=O)c1O)CCCOC2(C)C` [Example 204, 6H-Pyrimido[2,1-c][1,4]oxazepine-2-carboxamide, N-[[2-[(dimethylamino)sulfonyl]-4-fluorophenyl]methyl]-4,7,8,10-tetrahydro-3-hydroxy-10,10-dimethyl-4-oxo-] yielded an IC50 of 2 to 100 nM.
With `CCC1(CC)OCCn2c1nc(C(=O)NCc1ccc(F)cc1S(=O)(=O)N(C)C)c(O)c2=O` [Example 205, Pyrimido[2,1-c][1,4]oxazine-2-carboxamide, N-[[2-[(dimethylamino)sulfonyl]-4-fluorophenyl]methyl]-9,9-diethyl-4,6,7,9-tetrahydro-3-hydroxy-4-oxo-] the IC50 was 2 to 100 nM.
`CC1(C)OCCCn2c1nc(C(=O)NCc1ccccc1N1CCCCS1(=O)=O)c(O)c2=O` [Example 206, 6H-pyrimido[2,1-c][1,4]oxazepine-2-carboxamide, 4,7,8,10-tetrahydro-3-hydroxy-10,10-dimethyl-4-oxo-N-[[2-(tetrahydro-1,1-dioxido-2H-1,2-thiazin-2-yl)phenyl]methyl]-] gave an IC50 of 2 to 100 nM.
With `CCC1(CC)OCCn2c1nc(C(=O)NCc1ccccc1N1CCCCS1(=O)=O)c(O)c2=O` [Example 207, Pyrimido[2,1-c][1,4]oxazine-2-carboxamide, 4,6,7,9-tetrahydro-3-hydroxy-9,9-diethyl-4-oxo-N-[[2-(tetrahydro-1,1-dioxido-2H-1,2-thiazin-2-yl)phenyl]methyl]] the IC50 was 2 to 100 nM.
Work on `CSCCC1OCCn2c1nc(C(=O)NCc1ccc(F)cc1)c(O)c2=O` (centres unmarked) [Example 208, Pyrimido[2,1-c][1,4]oxazine-2-carboxamide, N-[(4-fluorophenyl)methyl]-4,6,7,9-tetrahydro-3-hydroxy-9-[2-(methylthio)ethyl]-4-oxo-] yielded an IC50 of 2 to 100 nM.
Compound `CS(=O)(=O)CCC1OCCn2c1nc(C(=O)NCc1ccc(F)cc1)c(O)c2=O` (centres unmarked) [Example 209, Pyrimido[2,1-c][1,4]oxazine-2-carboxamide, N-[(4-fluorophenyl)methyl]-4,6,7,9-tetrahydro-3-hydroxy-9-[2-(methylsulfonyl)ethyl]-4-oxo-] has an IC50 of 2 to 100 nM.
For `Cc1cc(-c2cc(F)ccc2CNC(=O)c2nc3n(c(=O)c2O)CCOC3(C)C)on1` [Example 210, Pyrimido[2,1-c][1,4]oxazine-2-carboxamide, N-[[4-fluoro-2-(3-methyl-5-isoxazolyl)phenyl]methyl]-4,6,7,9-tetrahydro-3-hydroxy-9,9-dimethyl-4-oxo-], the IC50 was 2 to 100 nM.
With `C/C(N)=C/C(=O)c1cc(F)ccc1CNC(=O)c1nc2n(c(=O)c1O)CCOC2(C)C` [Example 211, Pyrimido[2,1-c][1,4]oxazine-2-carboxamide, N-[[2-[(2Z)-3-amino-1-oxo-2-butenyl]-4-fluorophenyl]methyl]-4,6,7,9-tetrahydro-3-hydroxy-9,9-dimethyl-4-oxo-] the IC50 was 2 to 100 nM.
`CC1(C)OCCn2c1nc(C(=O)NCc1ccc(F)cc1-c1cc(Br)no1)c(O)c2=O` [Example 212, Pyrimido[2,1-c][1,4]oxazine-2-carboxamide, N-[[2-(3-bromo-5-isoxazolyl)-4-fluorophenyl]methyl]-4,6,7,9-tetrahydro-3-hydroxy-9,9-dimethyl-4-oxo-] showed an IC50 of 2 to 100 nM.
With `CON(Cc1ccc(F)cc1)C(=O)c1nc2n(c(=O)c1O)CCOC2(C)C` [Example 214, Pyrimido[2,1-c][1,4]oxazine-2-carboxamide, N-[(4-fluorophenyl)methyl]-4,6,7,9-tetrahydro-3-hydroxy-N-methoxy-9,9-dimethyl-4-oxo-] the IC50 was over 1000 nM.
